Some test systems named below: SR leukemia; HOP-18 NSCLC; TK-10 renal; ACHN renal; KM20L2 colon; DMS 273 small cell lung; DLD-1 colon; SNB-78 CNS; P388 leukemia; XF 498 CNS; P388/ADR leukemia; SN12K1 renal; MDA-N; HS 578T breast; T-47D breast; MDA-MB-435; MDA-MB-231 breast; PC-3 prostate.
What all share (assay): NCI tumour cell line growth inhibition, 48 h

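Values below derive from 48-hour exposures of cells grown in 96-well plates, with endpoints linearly interpolated between the two concentrations bracketing the appropriate inhibition level. GI50 = concentration required for 50% inhibition of growth. Definition used: TGI = concentration required for complete inhibition of growth.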

For the compound `CC(N)Cc1cccc(C(F)(F)F)c1` (configuration not stated), the TGI in the assay on SR leukemia, in the assay on HOP-18 NSCLC, with TK-10 renal, in the assay with ACHN renal, with KM20L2 colon and in the assay with DMS 273 small cell lung was greater than 100 µM each time. Besides, the TGI in the assay with DLD-1 colon and with SNB-78 CNS was greater than 100 µM in each case.
As for `CN(C)CCOc1cc2c(c3ccccc13)-c1ccccc1C2=O`, the TGI with P388 leukemia was 2.7 µM; with XF 498 CNS, 3.28 µM; with HOP-18 NSCLC, 8.58 µM; in the assay with KM20L2 colon, 5.3 µM; in the assay with P388/ADR leukemia, 1.95 µM; in the assay with SN12K1 renal, 2.04 µM. Also, the figures for the TGI in the assay with DMS 273 small cell lung, in the assay on DLD-1 colon and in the assay on SNB-78 CNS were 1.85 µM, 4.01 µM and 23 µM, respectively.
With `CO/C(=N/N1CC1C(F)(F)F)c1ccncc1` (configuration not stated), the TGI in the assay on MDA-N, with SR leukemia, in the assay on HS 578T breast, with T-47D breast, in the assay with MDA-MB-435 and in the assay with MDA-MB-231 breast was greater than 100 µM in each case.
On to `O=C(CCl)N1CCCCC1C1(c2cc3ccccc3[nH]2)OCCO1` (configuration not stated), for which the TGI was determined as 8.81 µM in the assay on MDA-N; 13.9 µM in the assay on HS 578T breast; 10.1 µM in the assay with TK-10 renal; 13.9 µM in the assay with ACHN renal; 26 µM with T-47D breast; 17.8 µM in the assay with MDA-MB-435. Moreover, the TGI with PC-3 prostate was determined as 8.83 µM; with MDA-MB-231 breast, 12.8 µM.
As to `O=C(O)C(Cc1cccs1)NC(=O)C(F)(F)F` (configuration not stated), the TGI in the assay on P388 leukemia, in the assay on HOP-18 NSCLC, in the assay with KM20L2 colon, in the assay with P388/ADR leukemia, in the assay on SN12K1 renal and with DMS 273 small cell lung was greater than 100 µM throughout. In the assay on DLD-1 colon, the TGI was greater than 100 µM.
For the compound `CCCCOC(=O)CN1C(=O)c2ccccc2C1=O`, the TGI in the assay on SR leukemia, in the assay with XF 498 CNS, in the assay on TK-10 renal, in the assay on ACHN renal, in the assay with KM20L2 colon and in the assay with DMS 273 small cell lung was greater than 100 µM throughout. The TGI in the assay with DLD-1 colon and in the assay with SNB-78 CNS was greater than 100 µM throughout.
As for `C#CCCCC(=C)C[C@H](OCc1ccccc1)[C@H]1OC(=O)[C@@H]1C`, the TGI in the assay on MDA-N, in the assay with SR leukemia, in the assay with TK-10 renal, with ACHN renal, in the assay on MDA-MB-435 and in the assay on PC-3 prostate was greater than 100 µM throughout. In the assay on MDA-MB-231 breast, this compound yielded a TGI of 63.3 µM.
Consider `COC(=O)c1cccc(NC(=O)Nc2ccc3oc(=O)c4ccccc4c3c2)c1`, for which, in the assay on SR leukemia, the GI50 is 37 µM and the TGI was greater than 100 µM. Besides, in the assay with MDA-MB-231 breast, the GI50 is 3.89 µM and the TGI is greater than 100 µM.

Values taken from PubChem BioAssay (NCI).
